Several values for one entry are separate records, joined by “and”; a condition that tells them apart may be missing. Equal entries are not always repeated. Where two headings read alike, the source gives them in different places.
Experiments:
HIV = experiment: microbe, parasite or virus in culture; assay type: cell-based; details: read-out: Antiviral Activity IC50
Method: (§1) In addition to cell-free in vitro assays, eight RCD compounds were examined for inhibition of viral replication (Table 1) (Day J R, et al., J. Virol. Meth. 137(1):125-133 (2006)).
Computational docking was preformed using the Glide software package (Glide v5.5; Schrodinger, Inc.). Enzyme and cell-based assays were performed as previously described (Metifiot M, et al., Biochemistry 49:3715-3722 (2010); Marchand C, Neamati N, & Pommier Y, Methods Enzymol 340:624-633 (2001); Day J R, et al., J. Virol. Meth. 137(1):125-133 (2006)). Complete synthetic and experimental details are provided herein.

HIV-1 IN [1] = target: T1, HIV-1 IN (Human immunodeficiency virus type 1 group M subtype B, UniProt P12497); experiment: HIV-1 IN 3′-processing (3P) gel-based catalytic assay; assay type: biochemical; parameters: made in house
Description: As described above, HIV-1 IN has two functions: 3′-processing (3P) and strand transfer (ST).
Gels were dried and reaction products were visualized and quantified with a Typhoon 8600 (GE Healthcare, Little Chalfont, Buckinghamshire, UK).

HIV-1 IN [2] = target: T1, HIV-1 IN; experiment: HIV-1 IN strand transfer (ST) gel-based catalytic assay; assay type: biochemical; parameters: made in house; details: for IC50: Strand Transfer IC50, 32P-end labeled oligonucleotides in solution, gel-based separation
Description: As described above, HIV-1 IN has two functions: 3′-processing (3P) and strand transfer (ST). […] All 21 RCD compounds were screened for inhibitory activity against the 3P and ST reactions using published protocols (Metifiot M, et al., Biochemistry 49:3715-3722 (2010); Marchand C, Neamati N, & Pommier Y, Methods Enzymol 340:624-633 (2001)).
Some assays use preassembled HIV-1 IN on immobilized oligonucleotides (Pace P, et al., J. Med. Chem. 50(9):2225-2239 (2007)), whereas the assay provided herein uses ^32-P-end labeled oligonucleotides in solution and gel-based separation of the reaction products.
Recombinant HIV-1 IN and oligonucleotide substrates were obtained as previously reported (Marinello et al. Biochemistry 2008, 47, 9345-9354; Metifiot et al. Antimicrob. Agents Chemother. 2011, 55, 5127-5133; Hare et al. Mol. Pharmacol. 2011, 80, 565-572). Integrase reactions were performed in 10 μL total volume including 400 nM HIV-1 IN, 20 nM 5′-end [^32P]-labeled oligonucleotide substrate, and 1 μL inhibitor solution in 50 mM MOPS, pH 7.2, 7.5 mM MgCl2, and 14.3 mM 2-mercaptoethanol Inhibitor dilutions were in DMSO, and DMSO without drug was used as a control. Reactions were incubated at 37° C. for 60 min, terminated by adding 10 μL loading dye (10 mM EDTA, 98% deionized formamide, 0.025% xylene cyanol, and 0.025% bromophenol blue), and were subjected to electrophoresis in 20% polyacrylamide-7 M urea gels. Gels were dried and reaction products were visualized and quantified with a Typhoon 8600 (GE Healthcare, Little Chalfont, Buckinghamshire, UK).

HIV-1 IN [3] = target: T1, HIV-1 IN; details: read-out: IC50 against the strand transfer reaction of HIV-1 IN, reported value; Pace et al. 2007; preassembled IN on immobilized oligonucleotides; cited from earlier work
P4R5 cells = experiment: Toxicity assay on P4R5 cells; assay type: cell-based; details: at a concentration of 10 μM
Description: as §1

[4] = Human immunodeficiency virus 1, P4/R5, P4R5 cells

SMILES | IC50 (HIV-1 IN [1]; read-out: 3'-Processing IC50) | IC50 (HIV-1 IN [2]) | other results
O=C(NCc1ccc(F)cc1)c1ccc2cccnc2c1O [RCD-12] | – | – | IC50 (HIV; [4]): < 4 µM; IC50 (HIV; P4R5 cells): 2.3 µM
Cn1ccc(=O)c(O)c1C(=O)NCc1ccc(F)cc1 [RCD-2] | > 100 µM | > 100 µM | –
O=C(NCc1ccc(F)cc1)c1cccc(O)c1O [RCD-8, N-(4-Fluorobenzyl)-2,3-dihydroxybenzamide] | > 100 µM | 39.4 ± 4 µM | –
O=C(NCc1ccc(F)cc1)c1cccc(C(=O)NCc2ccc(F)cc2)c1O [RCD-19, N1,N3-Bis(4-fluorobenzyl)-2-hydroxyisophthalamide] | > 300 µM | > 300 µM | –
CNC(=O)c1cccc(C(=O)NCc2ccc(F)cc2)c1O [RCD-18, N1-(4-Fluorobenzyl)-2-hydroxy-N3-methylisophthalamide] | – | > 300 µM | IC50 (HIV-1 IN [1]): > 300 µM; IC50 (HIV; [4]): > 100 µM
Cc1occ(O)c(=O)c1C(=O)NCc1ccc(F)cc1 | > 100 µM | 56 ± 7 µM | –
Cc1cc(=O)c(O)c(C(=O)NCc2ccc(F)cc2)o1 [RCD-5] | 59.5 ± 1.4 µM | 0.55 µM and < 15 µM | –
O=C(NCc1ccc(F)cc1)c1cccc(=O)n1O [RCD-7] | > 100 µM | 19.7 ± 1.6 µM | –
Cc1nc(C(=O)NCc2ccc(F)cc2)c(O)c(=O)[nH]1 [RCD-1, N-(4-Fluorobenzyl)-5-hydroxy-2-methyl-6-oxo-1,6-dihydropyrimidine-4-carboxamide] | – | ~1 µM and 1 µM | IC50 (HIV-1 IN [1]): > 100 µM; IC50 (HIV-1 IN [3]): 0.06 µM; Selectivity for ST versus 3P reaction (HIV-1 IN [2]; ST versus 3P): selectivity for the ST versus 3P reaction
O=C(NCc1ccc(F)cc1)c1ccc2ccc[n+]([O-])c2c1O [RCD-14, 7-((4-Fluorobenzyl)carbamoyl)-8-hydroxyquinoline 1-oxide] | – | 3.8 ± 0.3 µM | IC50 (HIV-1 IN [1]): 40.5 ± 2 µM; Toxicity on P4R5 cells (P4R5 cells): some toxicity
O=C(NCc1ccc(F)cc1)c1ccc(C(=O)NCc2ccc(F)cc2)c(O)c1O [RCD-11, N1,N4-Bis(4-fluorobenzyl)-2,3-dihydroxyterephthalamide] | > 300 µM | 1.7 µM and < 2 µM | –
O=C(NCc1ccc(F)cc1)c1ccccc1O [RCD-15, N-(4-Fluorobenzyl)-2-hydroxybenzamide] | > 100 µM | > 100 µM | –
O=C(NCc1ccc(F)cc1)c1occc(=O)c1O [RCD-4] | > 100 µM | 0.96 µM | –
Cc1cc(=O)c(O)c(C(=O)NCc2ccc(F)cc2)n1C [RCD-3] | > 100 µM | > 100 µM | –
O=C(O)c1cccc(C(=O)NCc2ccc(F)cc2)[n+]1[O-] [RCD-16, 2-Carboxy-6-((4-fluorobenzyl)carbamoyl)pyridine 1-oxide] | 21.4 ± 3 µM | 9.2 ± 1.3 µM | –
COc1cccc(C(=O)NCc2ccc(F)cc2)c1O [RCD-9, N-(4-Fluorobenzyl)-2-hydroxy-3-methoxybenzamide] | > 100 µM | > 100 µM | Strand transfer activity in words (HIV-1 IN [2]; concentrations as high as 100 μM): complete loss of activity
O=C(NCc1ccc(F)cc1)c1cccc(C(=O)NCc2ccc(F)cc2)[n+]1[O-] [RCD-17, 2,6-Bis((4-fluorobenzyl)carbamoyl)pyridine 1-oxide] | – | > 100 µM | IC50 (HIV-1 IN [1]): > 300 µM; IC50 (HIV; [4]): > 100 µM
O=C(NCc1ccc(F)cc1)c1ccc2cccc(O)c2n1 [RCD-13, N-(4-Fluorobenzyl)-8-hydroxyquinoline-2-carboxamide] | > 100 µM | > 100 µM | inhibition at 100 µM (HIV-1 IN [2]; read-out: Strand transfer inhibition): < 30%; IC50 (HIV; [4]): > 100 µM
CNC(=O)c1ccc(C(=O)NCc2ccc(F)cc2)c(O)c1O [RCD-10, N1-(4-Fluorobenzyl)-2,3-dihydroxy-N4-methylterephthalamide] | – | 1.5 µM and < 15 µM and < 2 µM | IC50 (HIV-1 IN [1]): > 200 µM; IC50 (HIV; [4]): < 4 µM; IC50 (HIV; P4R5 cells): 4 µM
